Measurements published in ChEMBL document CHEMBL1201862, “PubChem BioAssay data set” (2004).
One block for each compound: values may come before it. The source made the active and inactive calls.

Tests used:
Cytochrome P450 2C9 = Cytochrome P450 2C9 (Homo sapiens, UniProt P11712)
Cytochrome P450 1A2 = target: T1, Cytochrome P450 1A2 (Homo sapiens, UniProt P05177);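 note: PubChem cytochrome P450 panel assay, CYP1A2 panel member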
T1 sequence (P05177 whole entry): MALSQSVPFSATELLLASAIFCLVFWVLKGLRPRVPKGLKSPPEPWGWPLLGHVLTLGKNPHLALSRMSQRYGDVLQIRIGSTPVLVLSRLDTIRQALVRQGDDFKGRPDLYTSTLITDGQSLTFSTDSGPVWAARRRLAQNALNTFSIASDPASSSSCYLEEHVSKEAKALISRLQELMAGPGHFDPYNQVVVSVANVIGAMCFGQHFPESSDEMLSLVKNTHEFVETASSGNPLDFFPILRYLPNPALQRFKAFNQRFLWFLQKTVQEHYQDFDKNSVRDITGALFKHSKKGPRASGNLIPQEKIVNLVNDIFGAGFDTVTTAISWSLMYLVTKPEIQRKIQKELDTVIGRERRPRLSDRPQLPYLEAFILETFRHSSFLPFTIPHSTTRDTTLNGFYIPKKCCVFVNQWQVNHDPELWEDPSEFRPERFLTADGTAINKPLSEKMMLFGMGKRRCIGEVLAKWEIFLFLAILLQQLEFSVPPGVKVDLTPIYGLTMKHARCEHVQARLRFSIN

Cytochrome P450 2D6 = Cytochrome P450 2D6 (Homo sapiens, UniProt P10635);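 note: CYP2D6 member of a cytochrome P450 panel assay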
Cytochrome P450 2D6, sequence (P10635 whole entry): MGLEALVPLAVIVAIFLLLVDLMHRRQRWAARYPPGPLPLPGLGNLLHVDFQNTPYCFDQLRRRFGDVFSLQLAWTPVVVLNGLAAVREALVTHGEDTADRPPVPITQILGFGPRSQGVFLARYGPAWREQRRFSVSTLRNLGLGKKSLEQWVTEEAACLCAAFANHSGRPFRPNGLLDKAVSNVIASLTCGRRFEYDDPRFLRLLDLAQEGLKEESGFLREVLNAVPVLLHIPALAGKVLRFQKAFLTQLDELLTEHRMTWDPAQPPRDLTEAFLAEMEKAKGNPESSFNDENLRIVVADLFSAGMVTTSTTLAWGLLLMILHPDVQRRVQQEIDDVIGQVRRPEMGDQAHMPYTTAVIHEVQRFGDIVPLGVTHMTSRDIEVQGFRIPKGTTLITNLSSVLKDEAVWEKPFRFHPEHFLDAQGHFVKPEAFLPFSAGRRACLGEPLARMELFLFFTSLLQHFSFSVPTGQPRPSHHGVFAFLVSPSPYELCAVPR

[1] = target: T2, Rac GTPase-activating protein 1 (Homo sapiens, UniProt Q9H0H5); test: MgcRacGAP GTPase-activating activity inhibitors, confirmation, biochemical, ADP Hunter fluorescence, primary and confirmatory (AID 624330); format: functional
T2 sequence (Q9H0H5 whole entry): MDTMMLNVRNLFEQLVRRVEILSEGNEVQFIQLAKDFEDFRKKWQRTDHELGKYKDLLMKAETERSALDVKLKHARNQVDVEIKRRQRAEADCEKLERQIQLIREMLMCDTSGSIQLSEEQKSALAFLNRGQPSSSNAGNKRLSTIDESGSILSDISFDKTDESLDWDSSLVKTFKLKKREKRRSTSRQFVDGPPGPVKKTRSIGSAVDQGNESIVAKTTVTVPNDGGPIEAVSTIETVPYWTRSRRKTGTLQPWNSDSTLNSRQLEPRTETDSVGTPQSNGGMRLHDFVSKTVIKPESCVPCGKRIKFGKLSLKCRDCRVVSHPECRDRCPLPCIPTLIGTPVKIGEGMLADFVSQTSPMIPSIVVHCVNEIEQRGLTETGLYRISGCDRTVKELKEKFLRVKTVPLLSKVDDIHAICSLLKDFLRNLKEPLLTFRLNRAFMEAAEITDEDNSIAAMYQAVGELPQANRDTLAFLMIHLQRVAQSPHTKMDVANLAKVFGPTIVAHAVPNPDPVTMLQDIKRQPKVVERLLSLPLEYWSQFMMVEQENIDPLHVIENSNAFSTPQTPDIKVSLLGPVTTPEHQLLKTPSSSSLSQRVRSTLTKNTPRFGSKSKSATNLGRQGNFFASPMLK

Cytochrome P450 2C19 = Cytochrome P450 2C19 (Homo sapiens, UniProt P33261); test: Cytochrome panel assay with activity outcomes. Panel member name: p450-cyp2c19 Compounds with AC50 equal or less than 10 uM are considered active; format: functional
Cytochrome P450 2C19, sequence (P33261 whole entry): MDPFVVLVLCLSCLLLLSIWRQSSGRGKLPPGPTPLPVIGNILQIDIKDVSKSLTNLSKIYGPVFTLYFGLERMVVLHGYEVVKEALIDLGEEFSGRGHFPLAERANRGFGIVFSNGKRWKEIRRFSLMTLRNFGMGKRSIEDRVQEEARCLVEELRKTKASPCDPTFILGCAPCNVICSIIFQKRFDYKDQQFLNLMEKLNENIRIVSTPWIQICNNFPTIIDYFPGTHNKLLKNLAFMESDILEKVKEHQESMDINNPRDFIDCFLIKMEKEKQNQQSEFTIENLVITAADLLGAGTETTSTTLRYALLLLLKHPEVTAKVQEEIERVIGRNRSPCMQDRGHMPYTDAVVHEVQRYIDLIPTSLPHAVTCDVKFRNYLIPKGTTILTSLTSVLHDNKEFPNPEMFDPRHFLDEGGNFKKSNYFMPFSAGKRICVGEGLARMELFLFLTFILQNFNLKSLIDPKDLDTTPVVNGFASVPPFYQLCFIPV

Cytochrome P450 2C9, sequence (P11712 whole entry): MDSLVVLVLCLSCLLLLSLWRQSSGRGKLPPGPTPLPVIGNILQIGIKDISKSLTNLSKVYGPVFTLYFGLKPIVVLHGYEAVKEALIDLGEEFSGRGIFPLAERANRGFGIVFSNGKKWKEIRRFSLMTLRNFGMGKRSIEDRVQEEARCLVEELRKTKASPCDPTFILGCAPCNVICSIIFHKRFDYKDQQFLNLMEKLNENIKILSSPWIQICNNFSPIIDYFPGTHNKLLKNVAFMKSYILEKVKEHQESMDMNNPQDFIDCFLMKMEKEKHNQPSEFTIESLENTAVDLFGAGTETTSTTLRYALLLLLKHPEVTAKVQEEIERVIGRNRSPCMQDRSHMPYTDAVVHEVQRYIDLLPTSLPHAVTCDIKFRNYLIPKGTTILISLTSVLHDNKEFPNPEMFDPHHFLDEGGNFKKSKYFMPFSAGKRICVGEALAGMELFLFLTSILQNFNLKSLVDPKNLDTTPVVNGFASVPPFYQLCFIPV

SMILES: O=C(c1ccncc1)N1CCC2(CC1)CCN(c1cccc(-c3ccccc3)c1)CC2
AC50 (Cytochrome P450 2C9): 12.6 µM (inconclusive)
AC50 (Cytochrome P450 1A2): 20 µM (inconclusive)

SMILES: Cc1cc(C)cc(-n2c(C)cc(C=C(C#N)C#N)c2C)c1
AC50 (Cytochrome P450 2C9): 2.51 µM (inconclusive)

SMILES: Cn1cccc1C(=O)N1CCC2(CC1)CCN(c1ccncc1)CC2
AC50 (Cytochrome P450 2D6): 25.1 µM (inconclusive)
AC50 (Cytochrome P450 1A2): 15.8 µM (inconclusive)

SMILES: CC(C)Oc1ccc(OCCn2c(S)nc3c(N)ncnc32)cc1
IC50 [1]: 95.3 µM (active)

SMILES: COc1ccc(NCc2nnc(SCc3ccccc3)n2-c2ccc(OC)cc2)cc1
AC50 (Cytochrome P450 2C9): 12.6 µM (inconclusive)
AC50 (Cytochrome P450 1A2): 17.8 µM (inconclusive)

SMILES: Cc1ccc2c(CC(=O)OCc3cc(=O)n4c(n3)sc3ccccc34)coc2c1
AC50 (Cytochrome P450 2D6): 31.6 µM (inconclusive)

SMILES: O=C(c1cnccn1)N1CCC2(CCCN(c3cccc(-c4ccccc4)c3)C2)CC1
AC50 (Cytochrome P450 2C19; read-out: AC50): 7.94 µM (inconclusive)

SMILES: c1ccc2c(c1)ncn2Cc1nnc2sc(-c3ccc4c(c3)OCO4)nn12
AC50 (Cytochrome P450 2D6): 15.8 µM (inconclusive)
AC50 (Cytochrome P450 2C19; read-out: AC50): 15.8 µM (inconclusive)
AC50 (Cytochrome P450 1A2): 1.12 µM (inconclusive)

SMILES: COc1cc(CNCc2cc(OC)c(OC)c(OC)c2)cc(OC)c1
IC50 [1]: 203 µM (active)

SMILES: O=C(CSc1nc2ccccc2s1)NNC(=S)Nc1ccc(Br)cc1
AC50 (Cytochrome P450 2D6): 3.55 µM (inconclusive)

SMILES: O=C(ON=C1CCN(S(=O)(=O)c2ccccc2)CC1)c1ccccc1
AC50 (Cytochrome P450 2C9): 31.6 µM (inconclusive)

SMILES: CN(C)C(=O)c1ccc(-c2nc(NCc3ccccc3)c3ccccc3n2)cc1
AC50 (Cytochrome P450 2D6): 39.8 µM (inconclusive)
AC50 (Cytochrome P450 2C19; read-out: AC50): 25.1 µM (inconclusive)

SMILES: CC(C(=O)NCC(=O)Nc1ccc(F)c(F)c1F)N1CCN(c2ccc(O)cc2)CC1 (configuration not stated)
IC50 [1]: 42.5 µM (active)

SMILES: Nc1nc(N)c(CCCCc2ccccc2)c(N)n1
AC50 (Cytochrome P450 2D6): 3.98 µM (inconclusive)

SMILES: Cc1ccc(C(=O)Oc2cc(C)n(C)c(=O)c2)cc1
AC50 (Cytochrome P450 2C9): 11.2 µM (inconclusive)
AC50 (Cytochrome P450 1A2): 25.1 µM (inconclusive)

SMILES: CN(CCCCCCN(C)Cc1ccccc1O)Cc1ccccc1O
IC50 [1]: 73.6 µM (active)

SMILES: Cc1noc(C)c1-c1cc(N(C)Cc2ccco2)ncn1
AC50 (Cytochrome P450 2C19; read-out: AC50): 15.8 µM (inconclusive)

SMILES: COC(=O)[C@@]1(Cc2ccccc2)[C@H]2c3cc(C(=O)N4CCCC4)n(Cc4ccccn4)c3C[C@H]2CN1C(=O)c1ccccc1
AC50 (Cytochrome P450 2D6): 39.8 µM (inconclusive)

SMILES: Cc1cccn2c(S)nnc12
IC50 [1]: 17.2 µM (active)

SMILES: COc1ccc(C(=O)NC2CC3CCCC(C2)N3CC(C)C)cc1OC (configuration not stated)
AC50 (Cytochrome P450 2C9): 22.4 µM (inconclusive)

SMILES: O=C(NCc1ccccc1)/C(=C\c1ccc(O)cc1)NC(=O)c1ccco1
IC50 [1]: 141 µM (active)

SMILES: CN1CCN(C(=O)C(C(=O)c2ccc(F)cc2)n2ccccc2=O)CC1 (configuration not stated)
AC50 (Cytochrome P450 2C19): inconclusive

SMILES: CCOc1ccccc1C1C(C(N)=O)=C(C)Nc2nc(-c3ccc(OC)cc3)nn21 (configuration not stated)
AC50 (Cytochrome P450 2C9): 15.8 µM (inconclusive)
AC50 (Cytochrome P450 2D6): 1 µM (inconclusive)
AC50 (Cytochrome P450 1A2): 15.8 µM (inconclusive)

SMILES: Cn1cc(C(=O)c2cccc(Cl)c2Cl)cc1C(=O)O
AC50 (Cytochrome P450 2C9): 31.6 µM (inconclusive)

SMILES: COc1cc(/C=N/NC(=O)c2[nH]nc3c2CCc2ccccc2-3)ccc1O
IC50 [1]: 54.3 µM (active)

SMILES: COc1cccc(/C=N/NC(=O)c2c(-c3ccccc3)noc2C)c1
AC50 (Cytochrome P450 2D6): 17.8 µM (inconclusive)

SMILES: COc1cc(/C=N/NC(=O)c2cccnc2)ccc1OC(=O)c1ccco1
AC50 (Cytochrome P450 2C9): 28.2 µM (inconclusive)
AC50 (Cytochrome P450 2C19; read-out: AC50): 8.91 µM (inconclusive)

SMILES: O=c1cc(-c2ccc(O)c(O)c2)oc2cc(O)c([C@@H]3O[C@H](CO)[C@@H](O)[C@H](O)[C@H]3O)c(O)c12 [ISOORIENTIN]
IC50 [1]: 40.9 µM (active)

The next lines start with the values.

AC50 (Cytochrome P450 2D6): 15.8 µM (inconclusive)
SMILES: c1ccc2c(Nc3ccncc3)nc(-c3ccoc3)nc2c1

AC50 (Cytochrome P450 2C19; read-out: AC50): 15.8 µM (inconclusive)
SMILES: COc1ccccc1CNc1cc(-c2cccnc2)ncn1

IC50 [1]: 68.7 µM (active)
SMILES: Cc1cccn2c(NCc3ccc4c(c3)OCO4)c(-c3ccc(O)cc3)nc12

AC50 (Cytochrome P450 2C9): 12.6 µM (inconclusive)
AC50 (Cytochrome P450 2C19; read-out: AC50): 8.91 µM (inconclusive)
SMILES: COc1ccc(-n2ncc3c(NCC4CCCO4)ncnc32)cc1 (configuration not stated)

AC50 (Cytochrome P450 2D6): 39.8 µM (inconclusive)
AC50 (Cytochrome P450 1A2): 15.8 µM (inconclusive)
SMILES: Cc1ccccc1-c1cncnc1NCCN1CCOCC1

AC50 (Cytochrome P450 2C9): 22.4 µM (inconclusive)
SMILES: COC(=O)CSc1nnc(CNc2ccc(Cl)cc2)n1-c1ccccc1

AC50 (Cytochrome P450 2C19; read-out: AC50): 3.55 µM (inconclusive)
SMILES: Fc1ccc(-c2ccnc3nc(N4CCOCC4)nn23)cc1

IC50 [1]: 46.4 µM (active)
SMILES: COc1cc(-c2nc3cnccn3c2Nc2c(C)cccc2C)ccc1O

IC50 [1]: 60.7 µM (active)
SMILES: Cc1cc(OCc2nc3ccccc3s2)ccc1N

AC50 (Cytochrome P450 2D6): 7.94 µM (inconclusive)
AC50 (Cytochrome P450 2C19; read-out: AC50): 39.8 µM (inconclusive)
SMILES: Cn1c(=O)c(C(=O)CN2CCOCC2)c(N)n(Cc2ccccc2)c1=O

AC50 (Cytochrome P450 2D6): 31.6 µM (inconclusive)
SMILES: Cc1ccccc1-c1cc(NCc2ccccc2)ncn1

AC50 (Cytochrome P450 2D6): 39.8 µM (inconclusive)
SMILES: CN(C)c1ccc(-c2cncnc2-n2ccnc2)cc1

AC50 (Cytochrome P450 2D6): 20 µM (inconclusive)
AC50 (Cytochrome P450 1A2): 10 µM (inconclusive)
SMILES: COc1ccccc1NC(=O)CN1CCN(CC(=O)Nc2ccc(OCc3ccccc3)cc2)CC1

IC50 [1]: 31.5 µM (active)
SMILES: COc1cc(/C=N/NC(=O)C2CCN(CC(O)COCc3ccccc3)CC2)ccc1O (configuration not stated)

AC50 (Cytochrome P450 2D6): 31.6 µM (inconclusive)
SMILES: COc1ccccc1N1CCN(CCN(C(=O)C2CCCCC2)c2ccccn2)CC1 [WAY-100,635]
